In patent US9567301B2, “Pyrrol-1-yl benzoic acid derivatives useful as myc inhibitors” (Whitehead Institute for Biomedical Research, priority 2012, dated 2017):
“Also recorded” adds a separate entry of the source. Read-outs that look alike come from different tables or passages of the source. Blank lines part the entries; values can stand above or below the compound they belong to.

Tests used:
[1] = molecular target: T1, c-Myc (Homo sapiens, UniProt P01106); test: c-Myc chromatin immunoprecipitation assay in H2171 cells; type: cell-based; conditions: 100 μM, 4 hours
T1 construct: c-Myc genomic occupancy in H2171 cells treated with DMSO, Compound 63 (100 μM) or CC34301 (100 μM); endogenous in cells; host or cells: H2171
Procedure: FIG. 6 depicts a c-Myc chromatin immunoprecipitation assay to investigate c-Myc genomic occupancy in H2171 cells treated with DMSO, Compound 63 (100 μM) or CC34301 (100 μM) for 4 hours. Standard chromatin immunoprecipitation procedures were followed using an antibody specific to c-Myc (Santa Cruz, catalogue number sc-764). Quantitative PCR analysis was performed on four c-Myc binding sites (Npm1, Mat2a, Hnrnpa2b1, and Rp123a) and one non-binding site (Neg region) and normalized to a background region to determine the fold enrichment over background.

[2] = system: MM1S cells; test: Cell viability assay (ATPlite), MM1S; type: cell-based, human; conditions: for EC50: cell viability, three days, ATPlite, NA: inactive under assay conditions
Outline: (§1)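 Cells seeded at 60,000 cells/mL and dosed immediately by pin transfer in 10-point quadruplicate dose response from DMSO stocks. After three days at 37 °C, viability was read by ATPlite luminescence after 15 min at room temperature.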

[3] = molecular target: T2, c-Myc/Max/Ebox DNA (Homo sapiens, UniProt P01106); test: c-Myc/Max/Ebox DNA AlphaScreen assay; type: binding; design: An exemplary assay uses full-length human c-Myc and Max proteins; his6 (cleaved yes); made in house
Outline: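 Free c-Myc (25 nM), made by thrombin removal of the His6 tag, is pre-mixed with biotin-Ebox DNA (10 nM) and Ni acceptor beads before compound addition, then His6-Max (1.25 nM) and streptavidin donor beads are added. Buffer is HEPES pH 8.0 with BSA, Tween20, glycogen and DTT. Read after 2 h, excitation 680 nm, emission 520–620 nm.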

[4] = molecular target: T2, c-Myc/Max/Ebox DNA; test: Gelshift assay, c-Myc/Max/Ebox DNA complex formation; type: binding
Procedure: FIG. 5 describes validation of Compound 63 activity using an orthogonal biochemical assay. […] Decreasing amounts of 63 was added to purified c-Myc, Max and biotinylated Ebox DNA. Biotinylated Ebox DNA complexed with protein (either c-Myc/Max or Max/Max) or free (bottom band) was assayed using a 6% retardation gel, transferred to a membrane and detected using straptavidin-HRP. […]
(§2) AlphaScreen hits can be validated using orthogonal biochemical assays such as a gelshift assay (also called an electrophoretic mobility shift assay) with purified components or cellular lysates. FIG. 5 (left) illustrates how the AlphaScreen hit 63 was validated using a gelshift assay with purified c-Myc, Max and Ebox DNA. […] Compounds and analogs were then examined for potency and selectivity against structurally similar transcription factor:DNA complexes, such as Max/Max/Ebox DNA and MITF/MITF/Ebox DNA. Data in FIG. 9 show how analogs can be tested for potency against structurally similar transcription factors and how medicinal chemistry optimization can drive potency and selectivity against different transcription factor:DNA complexes. […] The selectivity among structurally similar transcription factors can also provide insights into compound mechanism of action. […] Cellular assays can compliment the biochemical analyses to measure the cellular potency of compounds to induce cellular phenotypes expected as a result of loss of transcription factor function. This includes gene expression analysis, chromatin immunoprecipitation (ChIP) analysis, cellular proliferation analysis and cell state analysis. Gene expression analysis can be performed using qRT-PCR, Nanostring technology, microarray technology, or RNA-seq technology to study transcript changes following treatment with compound. ChIP analysis can be performed on the factor of interest to study if compound treatment alters its genomic occupancy. Cellular proliferation and cell state analysis can indicate if the compound alters cell cycle progression or cellular identity. Thus, the approach using biochemical and cellular assays with large chemical libraries or focused libraries of hits identified in high throughput screens can serve as a platform to develop inhibitors of transcription factor function.

[5] = system: H2171 cells; test: Cell viability assay (ATPlite), H2171; type: cell-based, human; conditions: for EC50: Homo sapiens, NCI-H2171, 72 h, cell viability, three days, ATPlite, NA: inactive under assay conditions
Outline: as §1

[6] = system: HL-60 promyelocytic leukemia cells; test: HL-60 differentiation (qRT-PCR, FACS); type: cell-based, human; conditions: HL-60 cells
Procedure: FIG. 7 depicts the assessment of on-target activity versus general toxicity. HL-60 promyelocytic leukemia cells express high levels of c-Myc to maintain a proliferative and undifferentiated cell state. Loss of c-Myc function results in loss of cellular proliferation and induction of cellular differentiation. HL-60 cells were treated with DMSO, 64 (12.5 μM or 25 μM), or 151 (25 μM) for four days.

[7] = system: Jurkat cells; test: Cell viability assay (ATPlite), Jurkat; type: cell-based, human; conditions: Homo sapiens, Jurkat; class symbols; NA: not active under assay conditions
Procedure: This assay was used for the H2171 and MM1S cell data shown in Table 2, and for the Jurkat (an immortalized line of human T lymphocyte cells), Ly1 (OCI-Ly1 human non-Hodgkin lymphoma cell line), Ly4 (OCI-Ly4 human non-Hodgkin lymphoma cell line), H2172 (NCI-H2172 human non-small cell lung cancer cell line), and CA-46 (a human Burkitt's lymphoma cell line) cell data shown in Table 3 and FIG. 12. Cells were counted and adjusted to 60,000 cells/mL. Using a Biotek EL406, 50 μL of cells are media were distributed into 384 well white plates from Thermo. Immediately after plating, compound in DMSO was distributed to plates. For large plate sets, cells were returned to 37° C. incubator while not in use.
Compounds were added to plates using a 100 nL 384 well pin transfer manifold on a Janus workstation. Stocks were arrayed in 10 point quadruplicate dose response in DMSO stock in 384 well Greiner compound plates. After addition of compound, plates were incubated for three days in a 37° C. incubator.
Cell viability was read out using ATPlite from Perkin Elmer. Plates were removed from the incubator and brought to room temperature prior to use. Lyophilized powder was resuspended in lysis buffer and diluted 1:2 with DI water. 25 μL of this solution was added to each well using the Biotek liquid handler. Plates were sealed with adherent aluminum seals prior to vortexing and spinning down at 1000 g for 1 minute. Plates were incubated for 15 minutes at room temperature before signal was read on an Envision Plate Reader.

[8] = molecular target: T3, MITF/MITF/Ebox DNA (Homo sapiens, UniProt O75030); test: Gelshift assay, MITF/MITF/Ebox DNA complex formation; type: binding; conditions: relative to DMSO at 2.5 µM (FIG. 9)
T3 sequence (O75030 1-526): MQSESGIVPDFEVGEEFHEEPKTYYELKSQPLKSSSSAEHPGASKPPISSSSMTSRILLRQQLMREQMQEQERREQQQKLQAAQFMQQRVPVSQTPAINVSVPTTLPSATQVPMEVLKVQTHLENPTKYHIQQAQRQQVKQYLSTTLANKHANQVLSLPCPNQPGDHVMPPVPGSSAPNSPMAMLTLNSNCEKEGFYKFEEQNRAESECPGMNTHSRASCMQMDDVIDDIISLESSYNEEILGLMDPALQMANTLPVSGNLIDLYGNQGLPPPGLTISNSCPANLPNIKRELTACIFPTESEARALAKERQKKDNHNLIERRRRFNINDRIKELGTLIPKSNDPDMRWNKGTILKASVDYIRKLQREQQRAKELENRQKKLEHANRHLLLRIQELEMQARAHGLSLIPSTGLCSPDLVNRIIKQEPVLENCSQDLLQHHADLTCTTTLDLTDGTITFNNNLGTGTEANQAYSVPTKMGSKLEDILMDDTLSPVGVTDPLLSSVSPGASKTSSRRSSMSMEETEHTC
Procedure: (§3) Compounds tested at 2.5 μM for their inhibitory activity against c-Myc/Max/Ebox DNA, Max/Max/Ebox DNA and MITF/MITF/Ebox DNA complex formation using gelshift assays.
as §2

[9] = molecular target: Max/Max/Ebox DNA (Homo sapiens, UniProt P61244); test: Gelshift assay, Max/Max/Ebox DNA complex formation; type: binding; conditions: relative to DMSO at 2.5 µM (FIG. 9)
Procedure: as §3
as §2, with “Gene expression analysis can be performed using qRT-PCR, Nanostring technology, microarray technology, or RNA-seq technology to study transcript changes following treatment with compound. ChIP analysis can be performed on the factor of interest to study if compound treatment alters its genomic occupancy. Cellular proliferation and cell state analysis can indicate if the compound alters cell cycle progression or cellular identity. Thus, the approach using biochemical and cellular assays with large chemical libraries or focused libraries of hits identified in high throughput screens can serve as a platform to develop inhibitors of transcription factor function.” left out

[10] = system: protein:DNA complex; test: Comparative biochemical analyses of protein:DNA complex formation (FIG. 10); type: binding; conditions: FIG. 10, DNA intercalator comparison
[11] = c-Myc/Max/Ebox DNA AlphaScreen, NA: inactive under assay conditions, read-out: Biochemical IC50
[12] = class symbols, NA: not active under assay conditions, read-out: Myc/Max IC50
[13] = relative to DMSO at 2.5 mM (FIG. 9)

T1 sequence (P01106 whole entry): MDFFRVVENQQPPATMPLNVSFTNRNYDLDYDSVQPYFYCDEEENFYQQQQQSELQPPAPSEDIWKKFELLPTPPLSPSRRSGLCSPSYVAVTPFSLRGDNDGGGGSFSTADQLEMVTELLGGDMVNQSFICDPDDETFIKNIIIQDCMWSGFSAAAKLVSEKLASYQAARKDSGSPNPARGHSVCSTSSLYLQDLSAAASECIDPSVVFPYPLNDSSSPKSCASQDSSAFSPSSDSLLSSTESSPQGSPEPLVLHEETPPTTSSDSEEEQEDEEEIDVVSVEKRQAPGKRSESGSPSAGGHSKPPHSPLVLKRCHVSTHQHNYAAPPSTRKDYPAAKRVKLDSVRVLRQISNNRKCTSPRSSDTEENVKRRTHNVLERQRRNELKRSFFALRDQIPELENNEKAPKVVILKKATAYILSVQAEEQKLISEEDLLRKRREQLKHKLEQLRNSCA
T2 sequence (P01106 16-454): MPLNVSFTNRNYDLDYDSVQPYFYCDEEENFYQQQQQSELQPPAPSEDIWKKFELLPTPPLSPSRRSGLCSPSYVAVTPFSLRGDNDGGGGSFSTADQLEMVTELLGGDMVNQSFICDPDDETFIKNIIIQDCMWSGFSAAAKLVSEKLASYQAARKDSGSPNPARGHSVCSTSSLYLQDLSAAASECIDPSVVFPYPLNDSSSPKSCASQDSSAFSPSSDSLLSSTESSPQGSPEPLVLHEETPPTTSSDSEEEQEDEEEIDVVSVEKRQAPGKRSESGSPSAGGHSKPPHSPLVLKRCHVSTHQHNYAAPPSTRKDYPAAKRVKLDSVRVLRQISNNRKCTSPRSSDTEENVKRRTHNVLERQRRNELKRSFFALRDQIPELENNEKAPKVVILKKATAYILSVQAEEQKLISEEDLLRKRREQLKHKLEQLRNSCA
Chain of Max/Max/Ebox DNA (P61244 whole entry): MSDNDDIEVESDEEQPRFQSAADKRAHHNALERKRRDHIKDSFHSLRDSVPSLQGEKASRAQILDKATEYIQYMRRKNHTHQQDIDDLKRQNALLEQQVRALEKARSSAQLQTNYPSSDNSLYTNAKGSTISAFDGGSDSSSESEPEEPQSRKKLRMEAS

- Max genomic occupancy [1]: largely unchanged
- c-Myc protein levels [1]: unchanged
- c-Myc occupancy at binding sites (Npm1, Mat2a, Hnrnpa2b1, Rp123a) ([1]; compared to DMSO or CC34301): reduced c-Myc occupancy
- EC50 [2]: 322 µM
- IC50 [3, 11]: 24.2 µM
- selectivity c-Myc/Max versus Max/Max ([4]; at tested doses (FIG. 5)): selectivity towards c-Myc/Max
- EC50 [5]: 96.9 µM
SMILES: Cc1ccc(C)n1-c1ccccc1C(=O)O [Compound 63, 2-(2,5-dimethylpyrrolyl)benzoic acid]
- c-Myc/Max/Ebox DNA complex formation ([4]; decreasing amounts of compound (FIG. 5)): reduced c-Myc/Max/Ebox DNA complex formation in a dose-dependent manner; also recorded: inhibits c-Myc/Max/Ebox DNA complex formation (top band) in a dose dependent manner

- EC50 ([2]; Homo sapiens, MM1.S, 72 h): 52.3 µM
- IC50 [3, 11]: 155 µM
- IC50 [3, 12]: ≥ 100 µM
- EC50 [7]: 10 to 100 µM
- EC50 [5]: 29.9 µM
SMILES: CC(=O)OCOC(=O)c1ccccc1-n1c(C)ccc1C [Compound 64]
- cellular activity/potency in cellular proliferation assay ([2]; MM1.S, prodrug relative to free acid (FIG. 3, FIG. 4)): increased cellular activity
- expression of differentiation markers (qRT-PCR) ([6]; 12.5 μM or 25 μM, four days): induces the expression of three differentiation markers (CD14, CD11c, and CCL4)
- differentiation marker CD11c (FACS) ([6]; 4 days): express the differentiation marker CD11c
- cellular activity in cellular proliferation assay ([5]; H2171, relative to free acid Compound 63 (FIG. 3)): increased cellular activity

- MITF/MITF/Ebox DNA complex formation [8]: disrupted
- IC50 [3, 11]: 0.531 µM
- c-Myc/Max/Ebox DNA complex formation [4, 13]: disrupted
SMILES: Cc1ccc(C)n1-c1cc(C(=O)N/N=C/c2ccc(O)c(O)c2O)ccc1C(=O)O [Compound 79]

- MITF/MITF/Ebox DNA complex formation [8]: potently disrupted
- biochemical activity ([3]; FIG. 4): increased biochemical activity
- IC50 [3, 12]: 1 to 10 µM
- EC50 [7]: 10 to 100 µM
- c-Myc/Max/Ebox DNA complex formation [4, 13]: potently disrupted
- Max/Max/Ebox DNA complex formation [9]: potently disrupted
SMILES: Cc1ccc(C)n1-c1cc(C(=O)N/N=C/c2cccc(C(=O)O)c2)ccc1C(=O)O [Compound 101, (E)-4-(2-(3-carboxybenzylidene)hydrazinecarbonyl)-2-(2,5-dimethyl-1H-pyrrol-1-yl)benzoic acid]

SMILES: COc1cccc2c1C(=O)c1c(O)c3c(c(O)c1C2=O)C[C@@](O)(C(=O)CO)C[C@@H]3O[C@H]1C[C@H](N)[C@H](O)[C@H](C)O1 [doxorubicin]
- protein:DNA complex formation [10]: non-specifically disrupts protein:DNA complex formation
